Source: US12077503B2, “Substituted cyclic amides and their use as herbicides” (FMC CORPORATION, priority 2015, dated 2024)

What was measured:
Assay type in all cases: in vivo
corn (Zea mays) [1] = assay: Test G Post-Emergence Protocol; details: Zea mays, post-emergence, 312 h; for plant injury at 15.625 g/ha: 15.625 g ai/ha, evaluated after 13 days (100=total damage to plant; 0=no damage to plant), read-out: Corn damage rating; for plant injury at 62.5 g/ha: 62.5 g ai/ha, read-out: Corn damage rating (100=total damage to plant; 0=no damage to plant); for plant injury at 62.5 g/ha / plant injury at 250 g/ha: evaluated after 13 days; for plant injury at 250 g/ha: 250 g ai/ha, read-out: damage to plant, Corn (100=total damage to plant; 0=no damage to plant)
Outline: (§1)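 Scores run 0 (no damage) to 100 (total damage) and were taken 13 days after spraying. Plants had been raised in pots for 8 days under glasshouse control (24/16 °C, 14 h photoperiod, 65% humidity) and then treated at 15.625, 62.5 or 250 g/ha.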

[2] = tested on: barnyardgrass (Echinochloa crus-galli); assay: Test G Post-Emergence Protocol; details: Echinochloa crus-galli, post-emergence, 312 h; for pest or weed control at 15.625 g/ha: 15.625 g ai/ha, evaluated after 13 days (100=total damage to plant; 0=no damage to plant), read-out: Barnyardgrass damage rating; for pest or weed control at 62.5 g/ha: 62.5 g ai/ha, read-out: Barnyardgrass damage rating (100=total damage to plant; 0=no damage to plant); for pest or weed control at 62.5 g/ha / pest or weed control at 250 g/ha: evaluated after 13 days; for pest or weed control at 250 g/ha: 250 g ai/ha, read-out: damage to plant, Barnyardgrass (100=total damage to plant; 0=no damage to plant)
Outline: as §1

[3] = tested on: redroot pigweed (Amaranthus retroflexus); assay: Test G Post-Emergence Protocol; details: Amaranthus retroflexus, post-emergence, 312 h; for pest or weed control at 15.625 g/ha: 15.625 g ai/ha, evaluated after 13 days (100=total damage to plant; 0=no damage to plant), read-out: Pigweed, Redroot damage rating; for pest or weed control at 62.5 g/ha: 62.5 g ai/ha, read-out: Pigweed, Redroot damage rating (100=total damage to plant; 0=no damage to plant); for pest or weed control at 62.5 g/ha / pest or weed control at 250 g/ha: evaluated after 13 days; for pest or weed control at 250 g/ha: 250 g ai/ha, read-out: damage to plant, Pigweed, Redroot (100=total damage to plant; 0=no damage to plant)
Outline: as §1

[4] = tested on: giant foxtail (Setaria faberi); assay: Test G Post-Emergence Protocol; details: Setaria faberi, post-emergence, 312 h; for pest or weed control at 15.625 g/ha: 15.625 g ai/ha, evaluated after 13 days (100=total damage to plant; 0=no damage to plant), read-out: Foxtail, Giant damage rating; for pest or weed control at 62.5 g/ha: 62.5 g ai/ha, read-out: Foxtail, Giant damage rating (100=total damage to plant; 0=no damage to plant); for pest or weed control at 62.5 g/ha / pest or weed control at 250 g/ha: evaluated after 13 days; for pest or weed control at 250 g/ha: 250 g ai/ha, read-out: damage to plant, Foxtail, Giant (100=total damage to plant; 0=no damage to plant)
Outline: as §1

[5] = tested on: ivy-leaved morning glory (Ipomoea hederacea); assay: Test G Post-Emergence Protocol; details: Ipomoea, post-emergence, 312 h; for pest or weed control at 15.625 g/ha: 15.625 g ai/ha, evaluated after 13 days (100=total damage to plant; 0=no damage to plant), read-out: Morningglory, Ivy-leaved damage rating; for pest or weed control at 62.5 g/ha: 62.5 g ai/ha, read-out: Morningglory, Ivy-leaved damage rating (100=total damage to plant; 0=no damage to plant); for pest or weed control at 62.5 g/ha / pest or weed control at 250 g/ha: evaluated after 13 days; for pest or weed control at 250 g/ha: 250 g ai/ha, read-out: damage to plant, Morningglory, Ivy-leaved (100=total damage to plant; 0=no damage to plant)
Outline: as §1

[6] = tested on: velvetleaf (Abutilon theophrasti); assay: Test G Post-Emergence Protocol; details: Abutilon theophrasti, post-emergence, 312 h; for pest or weed control at 15.625 g/ha: 15.625 g ai/ha, evaluated after 13 days (100=total damage to plant; 0=no damage to plant), read-out: Velvetleaf damage rating; for pest or weed control at 62.5 g/ha: 62.5 g ai/ha, read-out: Velvetleaf damage rating (100=total damage to plant; 0=no damage to plant); for pest or weed control at 62.5 g/ha / pest or weed control at 250 g/ha: evaluated after 13 days; for pest or weed control at 250 g/ha: 250 g ai/ha, read-out: damage to plant, Velvetleaf (100=total damage to plant; 0=no damage to plant)
Outline: as §1

corn (Zea mays) [7] = assay: Test G Pre-Emergence Protocol; details: Zea mays, pre-emergence, 312 h, evaluated after 13 days; for plant injury at 15.625 g/ha: 15.625 g ai/ha; for plant injury at 15.625 g/ha / plant injury at 250 g/ha: read-out: Corn damage rating (100=total damage to plant; 0=no damage to plant); for plant injury at 62.5 g/ha: 62.5 g ai/ha, 100=total damage to plant, 0=no damage to plant, read-out: plant damage rating, Corn; for plant injury at 250 g/ha: 250 g ai/ha
Outline: (§2)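 Pre-emergence spray, 15.625/62.5/250 g/ha, vehicle acetone:water 50:50 + 0.5% Tween 20, applied 1 d after sowing. Glasshouse 24/16° C, 14 h light, 65% RH, watered twice daily. Visual damage rating at 13 d, 0–100 scale.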

[8] = tested on: barnyardgrass (Echinochloa crus-galli); assay: Test G Pre-Emergence Protocol; details: Echinochloa crus-galli, pre-emergence, 312 h, evaluated after 13 days; for pest or weed control at 15.625 g/ha: 15.625 g ai/ha, read-out: Barnyard grass damage rating (100=total damage to plant; 0=no damage to plant); for pest or weed control at 62.5 g/ha: 62.5 g ai/ha, 100=total damage to plant, 0=no damage to plant, read-out: plant damage rating, Barnyardgrass; for pest or weed control at 250 g/ha: 250 g ai/ha, read-out: Barnyardgrass damage rating (100=total damage to plant; 0=no damage to plant)
Outline: as §2

[9] = tested on: redroot pigweed (Amaranthus retroflexus); assay: Test G Pre-Emergence Protocol; details: Amaranthus retroflexus, pre-emergence, 312 h, evaluated after 13 days; for pest or weed control at 15.625 g/ha: 15.625 g ai/ha; for pest or weed control at 15.625 g/ha / pest or weed control at 250 g/ha: read-out: Pigweed, Redroot damage rating (100=total damage to plant; 0=no damage to plant); for pest or weed control at 62.5 g/ha: 62.5 g ai/ha, 100=total damage to plant, 0=no damage to plant, read-out: plant damage rating, Pigweed, Redroot; for pest or weed control at 250 g/ha: 250 g ai/ha
Outline: as §2

[10] = tested on: giant foxtail (Setaria faberi); assay: Test G Pre-Emergence Protocol; details: Setaria faberi, pre-emergence, 312 h, evaluated after 13 days; for pest or weed control at 15.625 g/ha: 15.625 g ai/ha; for pest or weed control at 15.625 g/ha / pest or weed control at 250 g/ha: read-out: Foxtail, Giant damage rating (100=total damage to plant; 0=no damage to plant); for pest or weed control at 62.5 g/ha: 62.5 g ai/ha, 100=total damage to plant, 0=no damage to plant, read-out: plant damage rating, Foxtail, Giant; for pest or weed control at 250 g/ha: 250 g ai/ha
Outline: as §2

[11] = tested on: ivy-leaved morning glory (Ipomoea hederacea); assay: Test G Pre-Emergence Protocol; details: Ipomoea, pre-emergence, 312 h, evaluated after 13 days; for pest or weed control at 15.625 g/ha: 15.625 g ai/ha, read-out: Morning-glory, Ivy-leaved damage rating (100=total damage to plant; 0=no damage to plant); for pest or weed control at 62.5 g/ha: 62.5 g ai/ha, 100=total damage to plant, 0=no damage to plant, read-out: plant damage rating, Morningglory, Ivy-leaved; for pest or weed control at 250 g/ha: 250 g ai/ha, read-out: Morningglory, Ivy-leaved damage rating (100=total damage to plant; 0=no damage to plant)
Outline: as §2

[12] = tested on: velvetleaf (Abutilon theophrasti); assay: Test G Pre-Emergence Protocol; details: Abutilon theophrasti, pre-emergence, 312 h, evaluated after 13 days; for pest or weed control at 15.625 g/ha: 15.625 g ai/ha; for pest or weed control at 15.625 g/ha / pest or weed control at 250 g/ha: read-out: Velvetleaf damage rating (100=total damage to plant; 0=no damage to plant); for pest or weed control at 62.5 g/ha: 62.5 g ai/ha, 100=total damage to plant, 0=no damage to plant, read-out: plant damage rating, Velvetleaf; for pest or weed control at 250 g/ha: 250 g ai/ha
Outline: as §2

SMILES | plant injury at 15.625 g/ha (corn (Zea mays) [1]) [%] | plant injury at 62.5 g/ha (corn (Zea mays) [1]) [%] | plant injury at 250 g/ha (corn (Zea mays) [1]) [%] | pest or weed control at 15.625 g/ha [2] [%] | pest or weed control at 62.5 g/ha [2] [%] | pest or weed control at 250 g/ha [2] [%] | pest or weed control at 15.625 g/ha [3] [%] | pest or weed control at 62.5 g/ha [3] [%] | pest or weed control at 250 g/ha [3] [%] | pest or weed control at 15.625 g/ha [4] [%] | pest or weed control at 62.5 g/ha [4] [%] | pest or weed control at 250 g/ha [4] [%] | pest or weed control at 15.625 g/ha [5] [%] | pest or weed control at 62.5 g/ha [5] [%] | pest or weed control at 250 g/ha [5] [%] | pest or weed control at 15.625 g/ha [6] [%] | pest or weed control at 62.5 g/ha [6] [%] | pest or weed control at 250 g/ha [6] [%] | plant injury at 15.625 g/ha (corn (Zea mays) [7]) [%] | plant injury at 62.5 g/ha (corn (Zea mays) [7]) [%] | also measured
CN1C[C@@H](c2ccc(C(F)(F)F)cc2)[C@H](C(=O)Nc2cn(C)nn2)C1=O (racemic) [Compound 1527] | 10 | 10 | 10 | 0 | 0 | 0 | 0 | 0 | 0 | 0 | 0 | 0 | 0 | 0 | 0 | 0 | 0 | 0 | 0 | 0 | plant injury at 250 g/ha (corn (Zea mays) [7]): 0%; pest or weed control at 15.625 g/ha [8]: 0%; pest or weed control at 62.5 g/ha [8]: 0%; pest or weed control at 250 g/ha [8]: 0%; pest or weed control at 15.625 g/ha [9]: 0%; pest or weed control at 62.5 g/ha [9]: 0%; pest or weed control at 250 g/ha [9]: 0%; pest or weed control at 15.625 g/ha [10]: 0%; pest or weed control at 62.5 g/ha [10]: 0%; pest or weed control at 250 g/ha [10]: 0%; pest or weed control at 15.625 g/ha [11]: 0%; pest or weed control at 62.5 g/ha [11]: 0%; pest or weed control at 250 g/ha [11]: 0%; pest or weed control at 15.625 g/ha [12]: 0%; pest or weed control at 62.5 g/ha [12]: 0%; pest or weed control at 250 g/ha [12]: 0%
CN1C[C@@H](c2ccc(C(F)(F)F)cc2)[C@H](C(=O)Nc2nccc(C(F)(F)F)n2)C1=O (racemic) [Compound 1547] | 0 | 0 | 0 | 0 | 0 | 0 | 0 | 0 | 0 | 0 | 0 | 0 | 0 | 0 | 0 | 0 | 0 | 0 | 0 | 0 | plant injury at 250 g/ha (corn (Zea mays) [7]): 0%; pest or weed control at 15.625 g/ha [8]: 0%; pest or weed control at 62.5 g/ha [8]: 0%; pest or weed control at 250 g/ha [8]: 0%; pest or weed control at 15.625 g/ha [9]: 0%; pest or weed control at 62.5 g/ha [9]: 0%; pest or weed control at 250 g/ha [9]: 0%; pest or weed control at 15.625 g/ha [10]: 0%; pest or weed control at 62.5 g/ha [10]: 0%; pest or weed control at 250 g/ha [10]: 0%; pest or weed control at 15.625 g/ha [11]: 0%; pest or weed control at 62.5 g/ha [11]: 0%; pest or weed control at 250 g/ha [11]: 0%; pest or weed control at 15.625 g/ha [12]: 0%; pest or weed control at 62.5 g/ha [12]: 0%; pest or weed control at 250 g/ha [12]: 0%
